The values below come from publication PMC12345137 (mBio, 2025).

For assay [1], the target named is SA AgrC-III (Staphylococcus aureus, UniProt O33590). The settings on record: 100 nM cognate AIP, ± SEM, determined previously, ref (1), cited from earlier work.
Assay [2] has as its target SA AgrC-II (Staphylococcus aureus, UniProt O33587).
Assay [3] deals with S. epidermidis agr-I (Staphylococcus epidermidis, UniProt Q5HMY3). As to the kind of experiment: cell-based. The settings on record: for QS interaction in words (inhibition / activation), S. epidermidis agr-I: fluorescent reporter strain, peptides tested at 1000, 50, 2.5, 0.125 nM or in dose-response. The class given is cell-based. As for the experimental part:
(§1) Peptides were evaluated for the ability to interfere with agr-mediated quorum sensing in S. aureus (AH1677, AH430, AH1747, and AH1872 for agr-I–IV, respectively) ([40]) using reporter strains expressing yellow fluorescent protein (YFP) upon agr activation. Interference with agr-mediated quorum sensing in S. epidermidis (AH3408, AH3623, and AH3409 for agr-I–III, respectively) ([45]), and S. lugdunensis (AH4031 for agr-I) ([37]) was evaluated using reporter strains expressing superfolder green fluorescent protein (sGFP) upon agr activation. Overnight cultures of the reporter strains were grown in TSB medium containing chloramphenicol (CAM, 10 μg/mL for S. aureus) or erythromycin (ERM, 10 μg/mL of S. epidermidis and S. lugdunensis) and diluted 1:100 in fresh TSB medium containing the same antibiotic. Assays were performed in sterile black 96-well plates with a clear bottom. […] DMSO stock solutions of peptides (1 mM) were diluted in TSB media and added (15 μL) in technical triplicate to the 96-well plate, followed by diluted bacterial overnight cultures (135 μL). […] Wells containing 150 μL TSB medium were used to measure background fluorescence. The 96-well plates were incubated in a humidified incubator at 37°C shaking at 1,000 rpm for 22–24 h and fluorescence (for GFP: excitation 479 nm, emission 520 nm; for YFP: excitation 500 nm, emission 541 nm; automatic gain), and OD600 values were subsequently measured using a plate reader. Background fluorescence was subtracted from all wells and further normalized to the corresponding OD600 value of the respective wells. The average fluorescence of control wells was used as a relative measure for 100% activation of the agr-circuit, and bar graphs were generated using GraphPad Prism 10.4 software. All assays were performed in at least a biological duplicate.
(§2) Overnight cultures of the reporter strains were grown in TSB medium containing chloramphenicol (CAM, 10 μg/mL for S. aureus) or erythromycin (ERM, 10 μg/mL of S. epidermidis and S. lugdunensis) and diluted 1:100 in fresh TSB medium containing the same antibiotic. Assays were performed in sterile black 96-well plates with clear bottoms. Peptide solutions (15 μL) in 1:5 serial dilutions from DMSO stock solutions (1 mM) in TSB medium were added to the 96-well plate in technical duplicate followed by diluted bacterial overnight cultures (135 μL). […] Wells containing 150 μL TSB medium were used to measure background fluorescence. The 96-well plates were incubated in a humidified incubator at 37°C shaking at 1,000 rpm for 22–24 h and fluorescence (for GFP: excitation 479 nm, emission 520 nm; for YFP: excitation 500 nm, emission 541 nm; automatic gain), and OD600 values were subsequently measured using a plate reader. Background fluorescence was subtracted from all wells and further normalized to the corresponding OD600 value of the respective wells. The average fluorescence of control wells was used as a relative measure for 100% activation of the agr-circuit. Relative agr activity was plotted to obtain IC50 values by non-linear regression with variable slope using GraphPad Prism 10.4 software. All assays were performed in biological triplicate.

In assay [4] the target is SA AgrC-IV (Staphylococcus aureus, UniProt Q309Z2).
In assay [5] the test system is S. aureus (SA) agr-II. The following applies: fluorescence, cited from earlier work.
The test system of assay [6] is S. aureus (SA) agr-I. The following applies: fluorescence, cited from earlier work.
Assay [7] deals with S. aureus agr-I (Staphylococcus aureus, UniProt O07911). The assay can be described thus: Fluorescence reporter assay for agr interference, screening and IC50 (AH1677, P3-YFP). In kind it is cell-based. The procedure: as §1, §2
On the technique in general: In a reporter assay the amount or activity of a reporter protein is the signal.

Setting [8] is: 100 nM cognate AIP; ± SEM; -b = no inhibition recorded at the highest AIP concentration tested; determined previously; ref (1); read-out: IC50, SA AgrC-II, b-lactamase assay; cited from earlier work.

Like-named read-outs stand apart in the source and are kept apart here. Positions of bridges follow the written chain, without caps; N, C: chain ends. Residues, ends and D or L forms follow the SMILES beside them.

As usually defined, the IC50 is the point on the concentration scale where inhibition reaches its midpoint. A word on the EC50: it is the concentration at which the effect is half-maximal.

S. aureus agr-I, sequence (O07911 entry or part of it): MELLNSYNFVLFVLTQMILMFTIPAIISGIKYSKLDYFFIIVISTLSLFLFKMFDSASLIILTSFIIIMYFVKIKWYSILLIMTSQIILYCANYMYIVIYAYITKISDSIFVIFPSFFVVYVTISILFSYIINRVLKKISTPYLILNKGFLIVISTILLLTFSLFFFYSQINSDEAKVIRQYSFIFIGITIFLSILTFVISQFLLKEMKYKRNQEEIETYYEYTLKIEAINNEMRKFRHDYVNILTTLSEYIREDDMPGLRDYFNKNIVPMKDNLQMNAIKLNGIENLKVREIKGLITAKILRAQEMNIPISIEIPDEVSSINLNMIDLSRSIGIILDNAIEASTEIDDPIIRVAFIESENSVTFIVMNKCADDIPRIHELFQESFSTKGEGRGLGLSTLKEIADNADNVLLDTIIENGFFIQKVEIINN
SA AgrC-II, sequence (O33587 entry or part of it): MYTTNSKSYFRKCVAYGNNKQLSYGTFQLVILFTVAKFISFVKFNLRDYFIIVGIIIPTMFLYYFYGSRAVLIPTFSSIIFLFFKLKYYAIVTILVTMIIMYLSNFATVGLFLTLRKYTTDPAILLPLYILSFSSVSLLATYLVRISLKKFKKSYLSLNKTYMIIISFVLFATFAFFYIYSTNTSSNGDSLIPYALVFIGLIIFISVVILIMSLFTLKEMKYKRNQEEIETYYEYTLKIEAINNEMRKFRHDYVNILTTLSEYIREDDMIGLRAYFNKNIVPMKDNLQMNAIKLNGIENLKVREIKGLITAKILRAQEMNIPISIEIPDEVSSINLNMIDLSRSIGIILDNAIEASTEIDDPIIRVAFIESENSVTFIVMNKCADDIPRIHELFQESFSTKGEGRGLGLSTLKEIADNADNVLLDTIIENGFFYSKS
S. epidermidis agr-I, sequence (Q5HMY3 entry or part of it): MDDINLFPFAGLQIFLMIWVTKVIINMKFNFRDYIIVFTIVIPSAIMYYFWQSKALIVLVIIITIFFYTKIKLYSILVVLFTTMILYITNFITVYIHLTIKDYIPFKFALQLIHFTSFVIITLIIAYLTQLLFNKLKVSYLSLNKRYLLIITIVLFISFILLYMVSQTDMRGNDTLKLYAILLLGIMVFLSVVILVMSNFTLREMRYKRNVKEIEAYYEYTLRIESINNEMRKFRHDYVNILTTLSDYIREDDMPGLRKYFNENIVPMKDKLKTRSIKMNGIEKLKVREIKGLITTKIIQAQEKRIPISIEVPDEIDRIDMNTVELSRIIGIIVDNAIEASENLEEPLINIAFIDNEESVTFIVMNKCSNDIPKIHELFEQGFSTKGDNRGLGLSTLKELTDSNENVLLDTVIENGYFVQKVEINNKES
SA AgrC-IV, sequence (Q309Z2 entry or part of it): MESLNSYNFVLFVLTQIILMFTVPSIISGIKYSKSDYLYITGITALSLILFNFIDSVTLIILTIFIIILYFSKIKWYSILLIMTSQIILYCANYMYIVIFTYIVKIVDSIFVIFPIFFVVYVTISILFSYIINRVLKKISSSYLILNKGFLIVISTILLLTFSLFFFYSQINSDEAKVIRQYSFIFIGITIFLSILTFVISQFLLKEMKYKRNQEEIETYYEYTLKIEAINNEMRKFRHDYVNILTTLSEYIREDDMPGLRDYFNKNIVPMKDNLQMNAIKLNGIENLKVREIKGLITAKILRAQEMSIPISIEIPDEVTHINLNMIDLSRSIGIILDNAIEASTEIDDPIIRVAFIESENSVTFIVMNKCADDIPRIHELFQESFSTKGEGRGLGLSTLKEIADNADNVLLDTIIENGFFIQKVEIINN
SA AgrC-III, sequence (O33590 entry or part of it): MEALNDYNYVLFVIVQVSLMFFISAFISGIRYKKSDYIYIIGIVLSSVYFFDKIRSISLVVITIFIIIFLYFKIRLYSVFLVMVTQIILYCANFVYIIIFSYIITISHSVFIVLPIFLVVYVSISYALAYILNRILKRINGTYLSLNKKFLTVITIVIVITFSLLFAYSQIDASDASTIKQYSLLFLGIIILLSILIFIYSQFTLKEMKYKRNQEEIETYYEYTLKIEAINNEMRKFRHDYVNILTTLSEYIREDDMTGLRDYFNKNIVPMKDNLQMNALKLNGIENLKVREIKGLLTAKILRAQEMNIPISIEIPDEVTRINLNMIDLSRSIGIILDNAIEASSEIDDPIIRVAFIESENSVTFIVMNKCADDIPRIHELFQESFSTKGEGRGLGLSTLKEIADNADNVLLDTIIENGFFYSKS

In the case of `CC[C@H](C)[C@@H]1NC(=O)[C@H](Cc2ccccc2)NC(=O)[C@H](CC(=O)O)NC(=O)[C@@H](NC(=O)[C@@H](NC(=O)[C@H](CO)NC(=O)[C@@H](N)Cc2ccc(O)cc2)[C@@H](C)O)CSC(=O)[C@H](CCSC)NC1=O` [compound 1, S. aureus AIP-I] (H-YSTCDFIM; thioester 4-C), the IC50 is 80 ± 11 nM in assay [1] (-b = no inhibition recorded at the highest AIP concentration tested, read-out: IC50, SA AgrC-III, b-lactamase assay); 700 ± 165 nM in assay [2] (setting [8]); greater than 1000 nM in assay [3]; 8 nM in assay [5] (ref (5)). The concentration giving a half-maximal response (EC50) in assay [4] (± SEM; determined previously; ref (1); read-out: EC50, SA AgrC-IV, b-lactamase assay; cited from earlier work) is 790 ± 66 nM.

For the compound `CC(C)C[C@@H]1NC(=O)[C@@H](NC(=O)[C@@H]2CCCN2C(=O)[C@H](CC(N)=O)NC(=O)[C@H](Cc2ccc(O)cc2)NC(=O)[C@@H](N)CCCCN)CSC(=O)[C@H](CC(C)C)NC(=O)[C@H](Cc2ccccc2)NC(=O)CNC1=O` [compound 32, S. simulans AIP-I] (H-KYNPCLGFL; thioester 5-C; N-terminus assumed), the IC50 in assay [1] (read-out: IC50, SA AgrC-III, b-lactamase assay, -b = no inhibition recorded at the highest AIP concentration tested) is 50 ± 11 nM; in assay [2] (read-out: IC50, SA AgrC-II, b-lactamase assay; 100 nM cognate AIP; ± SEM; -b = no inhibition recorded at the highest AIP concentration tested; determined previously; ref (1); cited from earlier work), 23 ± 2 nM; in assay [3] it was 0.74 ± 0.01 nM; in assay [4] (read-out: IC50, SA AgrC-IV, b-lactamase assay; 100 nM cognate AIP; ± SEM; -b = no inhibition recorded at the highest AIP concentration tested; determined previously; ref (1); cited from earlier work), 280 ± 66 nM; in assay [5] (ref (17)), 1.1 nM; in assay [6] (ref (17)) it was 2.2 nM. This compound displayed an IC50 in assay [7] of 0.34 ± 0.02 nM.

Take `NCCCC[C@H](N)C(=O)N[C@@H](Cc1ccc(O)cc1)C(=O)N[C@@H](Cc1ccc(O)cc1)C(=O)N1CCC[C@H]1C(=O)N[C@H]1CSC(=O)[C@H](Cc2ccccc2)NC(=O)[C@H](Cc2ccc(O)cc2)NC(=O)CNC(=O)[C@H](Cc2c[nH]c3ccccc23)NC1=O` [compound 33, S. simulans AIP-II] (H-KYYPCWGYF; thioester 5-C): the IC50 in assay [3] is 0.31 ± 0.06 nM; in assay [6] (ref (17)) it was 1.6 nM; in assay [7], 0.45 nM. In assay [3], the “QS interaction in words (inhibition / activation), S. epidermidis agr-I” value is listed as “inhibited”. Besides, the “QS interaction in words (inhibition / activation), S. aureus agr-I” value in assay [7] (fluorescent reporter strain, peptides tested at 1000, 50, 2.5, 0.125 nM or in dose-response) is listed as “inhibited”.

For `NCCCC[C@H](N)C(=O)N[C@@H](Cc1ccc(O)cc1)C(=O)N[C@@H](CC(N)=O)C(=O)N1CCC[C@H]1C(=O)N[C@H]1CSC(=O)[C@H](Cc2ccccc2)NC(=O)[C@H](Cc2ccc(O)cc2)NC(=O)CNC(=O)[C@H](Cc2c[nH]c3ccccc23)NC1=O` [compound 34, S. simulans AIP-III] (H-KYNPCWGYF; thioester 5-C), the IC50 was 0.14 ± 0.03 nM in assay [3], 6 nM in assay [5] (ref (17)), 1.7 nM in assay [6] (ref (17)) and 0.18 ± 0.03 nM in assay [7].

Consider “S. aureus AIP-III D4A [compound 57, reference compound]”, for which the IC50 in assay [1] (only partial inhibition observed, read-out: IC50, SA AgrC-III, b-lactamase assay, only partial inhibition observed (footnote a)) was 1.6 ± 0.2 nM; in assay [2] (setting [8]), 34 ± 1 nM; in assay [4] (100 nM cognate AIP; ± SEM; -b = no inhibition recorded at the highest AIP concentration tested; determined previously; ref (1); read-out: IC50, SA AgrC-IV, b-lactamase assay; cited from earlier work) it was 10 ± 0.2 nM; in assay [5] (ref (5)) it was 0.43 nM; in assay [6] (ref (5)), 0.49 nM. Also, the “QS interaction in words (inhibition / activation), S. epidermidis agr-I” value in assay [3] is “weak interference”.
